Reference: PubChem BioAssay (NCI)
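Cultured in 96-well plates, cells were exposed to test compound for 48 hours across five concentrations. TGI: total growth inhibition.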

Legend:
Assay in all cases: NCI tumour cell line growth inhibition, 48 h
[1] = tested on: BT-549 breast
[2] = tested on: COLO 205 colon
[3] = tested on: DU-145 prostate
[4] = tested on: EKVX NSCLC
[5] = tested on: HCT-116 colon
[6] = tested on: HT29 colon
[7] = tested on: K-562 leukemia
[8] = tested on: KM12 colon
[9] = tested on: M14 melanoma
[10] = tested on: MCF7 breast
[11] = tested on: OVCAR-4 ovarian
[12] = tested on: RXF 393 renal
[13] = tested on: SF-295 CNS
[14] = tested on: SK-MEL-5 melanoma
[15] = tested on: TK-10 renal
[16] = tested on: UACC-62 melanoma
[17] = tested on: UO-31 renal
[18] = tested on: SK-MEL-2 melanoma

| SMILES | TGI [1] | TGI [2] | TGI [3] | TGI [4] | TGI [5] | TGI [6] | TGI [7] | TGI [8] | TGI [9] | TGI [10] | TGI [11] | TGI [12] | TGI [13] | TGI [14] | TGI [15] | TGI [16] | TGI [17] | TGI [18] |
| --- | --- | --- | --- | --- | --- | --- | --- | --- | --- | --- | --- | --- | --- | --- | --- | --- | --- | --- |
| O=C1CN(C(=O)C2CCCN2C(=O)C2CCCN2)C(=O)CN1 (stereo unspecified) | > 100 µM | > 100 µM | > 100 µM | > 100 µM | > 100 µM | > 100 µM | > 100 µM | > 100 µM | > 100 µM | > 100 µM | > 100 µM | > 100 µM | > 100 µM | > 100 µM | > 100 µM | > 100 µM | > 100 µM | – |
| COc1ccc(/C=C2\CCC(C)C3C2=NN(c2ccccc2)C3c2ccc(OC)c(OC)c2)cc1OC (stereo unspecified) | 21.5 µM | 17.2 µM | 12.7 µM | 6.9 µM | 5.5 µM | 18.3 µM | 18.5 µM | 6.46 µM | 43.3 µM | 21.8 µM | – | 16.3 µM | 7.55 µM | 9.68 µM | 6.93 µM | 12.2 µM | 22.1 µM | 7.87 µM |
| Oc1c2cc(Cl)cc1COCc1cc(Cl)cc(c1O)COCc1cc(Cl)cc(c1O)COC2 | > 100 µM | > 100 µM | > 100 µM | > 100 µM | > 100 µM | – | > 100 µM | > 100 µM | 64.7 µM | > 100 µM | > 100 µM | > 100 µM | > 100 µM | > 100 µM | > 100 µM | > 100 µM | > 100 µM | > 100 µM |
| CC(C)(C)C(=O)OCOP(=O)(OCOC(=O)C(C)(C)C)OCC1OC(n2ccc(=O)[nH]c2=O)C(N=[N+]=[N-])C1O (stereo unspecified) | 14.9 µM | 13.5 µM | 17.6 µM | 20.6 µM | 12 µM | 11.4 µM | > 100 µM | 12.8 µM | 14.3 µM | 14.7 µM | 14 µM | 7.07 µM | 25.4 µM | 16.8 µM | 22.3 µM | 14.6 µM | 4.58 µM | – |
| O=c1[nH]nc(-c2ccccc2)n1-c1ccncc1 | > 100 µM | > 100 µM | > 100 µM | > 100 µM | > 100 µM | > 100 µM | > 100 µM | > 100 µM | > 100 µM | > 100 µM | > 100 µM | > 100 µM | > 100 µM | > 100 µM | > 100 µM | – | > 100 µM | – |
| CN(C)c1ccc(/C=C2/NC(=S)NC2=O)cc1 | > 100 µM | > 100 µM | > 100 µM | > 100 µM | > 100 µM | > 100 µM | – | – | > 100 µM | > 100 µM | > 100 µM | > 100 µM | > 100 µM | > 100 µM | > 100 µM | > 100 µM | > 100 µM | > 100 µM |
| O=C1N[C@H]2c3c(Cl)sc(Cl)c3[C@@H](O)[C@H]2O1 | > 100 µM | > 100 µM | > 100 µM | > 100 µM | > 100 µM | > 100 µM | > 100 µM | > 100 µM | > 100 µM | > 100 µM | – | > 100 µM | – | > 100 µM | > 100 µM | > 100 µM | > 100 µM | > 100 µM |
